Here are results for 16 compounds from patent US20240252506A1 (Hoffmann-La Roche Inc., priority 2021, published 2024).

What is called MIC is the least concentration at which growth counts as inhibited.

Values after ≈ are worked out from the molar mass of the structure shown.

In one experiment the test system is Escherichia coli ATCC 25922. Description: Minimal Inhibitory Concentration (MIC) determination, broth microdilution (CLSI M07-A10). Format: cell-based. To be noted: Escherichia coli, ATCC25922, strain Escherichia coli ATCC 25922, 18-24 hours at 35±2° C., lowest concentration for complete growth inhibition (no visible growth), read-out: Escherichia coli growth inhibition MIC. How it is done: Minimal Inhibitory Concentration (MIC) Determination:
The MIC of antibacterial compounds against multiple species and strains was determined using the broth microdilution method according to M07-A10 Clinical and Laboratory Standards Institute (CLSI) guidelines, using the appropriate broth medium. In short, the compound plates were prepared by dispensing 100 μL of each stock solution in the first well of a 96 well microtiter plate (MTP) at a concentration 100-fold higher than the final concentration desired in broth. Eleven serial 2-fold dilutions of the highest concentration were made in DMSO for new compounds and in water (or appropriate solution) for reference compounds [2]. 1 μL of each well was transferred in a new MTP, which served as the test plate by subsequent inoculation. This bacterial suspension was prepared from strains that were first sub-cultured on agar plates and incubated for 18-24 hours as appropriate. Following incubation, the inoculum was prepared from isolated colonies and adjusted to 0.5 McFarland turbidity standard (1 to 2×10^8 Colony Forming Units (CFU)/mL) in 0.9% saline. The bacterial suspension was then diluted 1:200 in appropriate sterile medium and within 15 minutes 100 μL/well were dispensed. Negative controls (lack of bacterial cells) and growth control wells (lack of compound) were included in all plates. MTPs were incubated for 18-24 hours at 35±2° C. in ambient air. The MIC value of each compound, expressed as μg/mL, was determined as the lowest concentration required for complete growth inhibition (no visible growth). • [1] CLSI (2015) Methods for dilution antimicrobial susceptibility tests for bacteria that grow aerobically; Approved Standard, Tenth Edition. CLSI Document M7-A10 (ISBN 1-56238-987-4). Wayne, PA: Clinical and Laboratory Standards Institute, 19087, USA. • [2] CLSI (2017) Performance Standards for Antimicrobial Susceptibility Testing; Twenty-Fifth Informational Supplement. CLSI Document M100-S27, CLSI, Wayne, Pennsylvania 19087, USA.
Table 1 provides the Minimal Inhibitory Concentrations (MIC) in micrograms per millilitre of the compounds of present invention obtained against the strain Escherichia coli ATCC 25922.
Take `CNCc1nc2cc3c(c(F)c2[nH]1)CC(CN1CCC2(CC1)CN(c1cnc4c(n1)NC(=O)CO4)C(=O)O2)C3` (single isomer, unassigned) [Example 59, 6-[8-[[8-Fluoro-2-(methylaminomethyl)-1,5,6,7-tetrahydrocyclopenta[f]benzimidazol-6-yl]methyl]-2-oxo-1-oxa-3,8-diazaspiro[4.5]decan-3-yl]-4H-pyrazino[2,3-b][1,4]oxazin-3-one]: the MIC turned out to be 0.125 µg/mL (≈ 0.233 µM).

As to `CNC(CO)c1nc2c(F)c3c(c(F)c2[nH]1)CC(CN1CCC2(CC1)CN(c1cnc4c(n1)NC(=O)CO4)C(=O)O2)C3` (single isomer, unassigned) [Example 66, 6-[8-[[4,8-Difluoro-2-[2-hydroxy-1-(methylamino)ethyl]-3,5,6,7-tetrahydrocyclopenta[f]benzimidazol-6-yl]methyl]-2-oxo-1-oxa-3,8-diazaspiro[4.5]decan-3-yl]-4H-pyrazino[2,3-b][1,4]oxazin-3-one], the minimum inhibitory concentration (MIC) was 0.25 µg/mL (≈ 0.428 µM).

In the case of `CNCc1nc2cc3c(c(F)c2o1)CC(CN1CCC2(CC1)CN(c1cnc4c(n1)NC(=O)CO4)C(=O)O2)C3` (single isomer, unassigned) [Example 95, 6-[8-[[8-fluoro-2-(methylaminomethyl)-6,7-dihydro-5H-cyclopenta[f][1,3]benzoxazol-6-yl]methyl]-2-keto-1-oxa-3,8-diazaspiro[4.5]decan-3-yl]-4H-pyrazino[2,3-b][1,4]oxazin-3-one], the minimal inhibitory concentration (MIC) came to 0.25 µg/mL (≈ 0.465 µM).

As for `O=C1COc2ncc(N3CC4(CCN(CC5Cc6cc7nc(CN8CC(O)C8)oc7c(F)c6C5)CC4)OC3=O)nc2N1` (single isomer, unassigned) [Example 98, 6-[8-[[8-fluoro-2-[(3-hydroxyazetidin-1-yl)methyl]-6,7-dihydro-5H-cyclopenta[f][1,3]benzoxazol-6-yl]methyl]-2-oxo-1-oxa-3,8-diazaspiro[4.5]decan-3-yl]-4H-pyrazino[2,3-b][1,4]oxazin-3-one], the MIC turned out to be 0.5 µg/mL (≈ 0.863 µM).

Regarding `O=C1COc2ncc(N3CC4(CCN(CC5Cc6cc7nc(C8CNC8)oc7c(F)c6C5)CC4)OC3=O)nc2N1` (single isomer, unassigned) [Example 100, 6-[2-oxo-8-[[2-(azetidin-3-yl)-8-fluoro-6,7-dihydro-5H-cyclopenta[f][1,3]benzoxazol-6-yl]methyl]-1-oxa-3,8-diazaspiro[4.5]decan-3-yl]-4H-pyrazino[2,3-b][1,4]oxazin-3-one], the MIC turned out to be 0.125 µg/mL (≈ 0.227 µM).

Still in this experiment, the particulars now being: strain Escherichia coli ATCC 25922, 18-24 hours at 35±2° C., lowest concentration for complete growth inhibition (no visible growth).
On to `CNC(CO)c1nc2c(F)c3c(c(F)c2[nH]1)CC(CN1CCC2(CC1)CN(c1cnc4c(n1)NC(=O)CO4)C(=O)O2)C3` (single isomer, unassigned) [Example 67, 6-[8-[[4,8-Difluoro-2-[2-hydroxy-1-(methylamino)ethyl]-3,5,6,7-tetrahydrocyclopenta[f]benzimidazol-6-yl]methyl]-2-oxo-1-oxa-3,8-diazaspiro[4.5]decan-3-yl]-4H-pyrazino[2,3-b][1,4]oxazin-3-one], for which the “Escherichia coli growth inhibition MIC” value worked out at 0.25 µg/mL.

On to `NCCn1nnc2cc3c(c(F)c21)CC(CN1CCC2(CC1)CN(c1cnc4c(n1)NC(=O)CO4)C(=O)O2)C3` (single isomer, unassigned) [Example 81, 6-[2-oxo-8-[[1-(2-aminoethyl)-8-fluoro-6,7-dihydro-5H-cyclopenta[f]benzotriazol-6-yl]methyl]-1-oxa-3,8-diazaspiro[4.5]decan-3-yl]-4H-pyrazino[2,3-b][1,4]oxazin-3-one], for which the “Escherichia coli growth inhibition MIC” value is no more than 0.06 µg/mL.

With `NCCn1nnc2cc3c(c(F)c21)CC(CN1CCC2(CC1)CN(c1cnc4c(n1)NC(=O)CO4)C(=O)O2)C3` (single isomer, unassigned) [Example 82, 6-[2-oxo-8-[[1-(2-aminoethyl)-8-fluoro-6,7-dihydro-5H-cyclopenta[f]benzotriazol-6-yl]methyl]-1-oxa-3,8-diazaspiro[4.5]decan-3-yl]-4H-pyrazino[2,3-b][1,4]oxazin-3-one], the “Escherichia coli growth inhibition MIC” value was found to be 0.125 µg/mL.

For `CNCCn1nc2cc(F)c3c(c2n1)CC(CN1CCC2(CC1)CN(c1cnc4c(n1)NC(=O)CO4)C(=O)O2)C3` (single isomer, unassigned) [Example 86, 6-[8-[[5-fluoro-2-[2-(methylamino)ethyl]-7.8-dihydro-6H-cyclopenta[e]benzotriazol-7-yl]methyl]-2-oxo-1-oxa-3,8-diazaspiro[4.5]decan-3-yl]-4H-pyrazino[2,3-b][1,4]oxazin-3-one], the “Escherichia coli growth inhibition MIC” value is no more than 0.06 µg/mL.

Take `CNCCn1nc2cc(F)c3c(c2n1)CC(CN1CCC2(CC1)CN(c1cnc4c(n1)NC(=O)CO4)C(=O)O2)C3` (single isomer, unassigned) [Example 87, 6-[8-[[5-fluoro-2-[2-(methylamino)ethyl]-7,8-dihydro-6H-cyclopenta[e]benzotriazol-7-yl]methyl]-2-oxo-1-oxa-3,8-diazaspiro[4.5]decan-3-yl]-4H-pyrazino[2,3-b][1,4]oxazin-3-one]: the “Escherichia coli growth inhibition MIC” value was 0.125 µg/mL.

`C[C@H](N)Cn1nc2cc(F)c3c(c2n1)CC(CN1CCC2(CC1)CN(c1cnc4c(n1)NC(=O)CO4)C(=O)O2)C3` (single isomer, unassigned) [Example 88]: the “Escherichia coli growth inhibition MIC” value was no more than 0.06 µg/mL.

With `C[C@H](N)Cn1nc2cc(F)c3c(c2n1)CC(CN1CCC2(CC1)CN(c1cnc4c(n1)NC(=O)CO4)C(=O)O2)C3` (single isomer, unassigned) [Example 89], the “Escherichia coli growth inhibition MIC” value was found to be 0.125 µg/mL.

Consider `CNCc1nc2cc3c(c(F)c2o1)CC(CN1CCC2(CC1)CN(c1cnc4c(n1)NC(=O)CO4)C(=O)O2)C3` (single isomer, unassigned) [Example 94, 6-[8-[[8-fluoro-2-(methylaminomethyl)-6,7-dihydro-5H-cyclopenta[f][1,3]benzoxazol-6-yl]methyl]-2-keto-1-oxa-3,8-diazaspiro[4.5]decan-3-yl]-4H-pyrazino[2,3-b][1,4]oxazin-3-one], for which the “Escherichia coli growth inhibition MIC” value was found to be 0.25 µg/mL.

As to `O=C1COc2ncc(N3CC4(CCN(CC5Cc6cc7nc(CN8CC(O)C8)oc7c(F)c6C5)CC4)OC3=O)nc2N1` (single isomer, unassigned) [Example 99, 6-[8-[[8-fluoro-2-[(3-hydroxyazetidin-1-yl)methyl]-6,7-dihydro-5H-cyclopenta[f][1,3]benzoxazol-6-yl]methyl]-2-oxo-1-oxa-3,8-diazaspiro[4.5]decan-3-yl]-4H-pyrazino[2,3-b][1,4]oxazin-3-one], the “Escherichia coli growth inhibition MIC” value amounted to 1 µg/mL.

On to `O=C1COc2ncc(N3CC4(CCN(CC5Cc6cc7nc(C8CNC8)oc7c(F)c6C5)CC4)OC3=O)nc2N1` (single isomer, unassigned) [Example 101, 6-[2-oxo-8-[[2-(azetidin-3-yl)-8-fluoro-6,7-dihydro-5H-cyclopenta[f][1,3]benzoxazol-6-yl]methyl]-1-oxa-3,8-diazaspiro[4.5]decan-3-yl]-4H-pyrazino[2,3-b][1,4]oxazin-3-one], for which the “Escherichia coli growth inhibition MIC” value was 0.25 µg/mL.

In the case of `NCCc1nc2cc3c(c(F)c2o1)CC(CN1CCC2(CC1)CN(c1cnc4c(n1)NC(=O)CO4)C(=O)O2)C3` (single isomer, unassigned) [Example 102, 6-[8-[[2-(2-aminoethyl)-8-fluoro-6,7-dihydro-5H-cyclopenta[f][1,3]benzoxazol-6-yl]methyl]-2-oxo-1-oxa-3,8-diazaspiro[4.5]decan-3-yl]-4H-pyrazino[2,3-b][1,4]oxazin-3-one], the “Escherichia coli growth inhibition MIC” value stood at 0.125 µg/mL.
